Measured values published in ChEMBL document CHEMBL1123941, “Potential antisecretory antidiarrheals. 1. Alpha 2-adrenergic aromatic aminoguanidine hydrazones” (1988).
The source made the active and inactive calls. The rule behind the calls is not given here.

Key:
Oryctolagus cuniculus [1] = species on record: Oryctolagus cuniculus; assay: Inhibition of increase in intestine potential difference caused by diarrhea-inducing secretagogues in rabbits using 'Using chamber'; Inactive; type: functional, organism-based
Rattus norvegicus [2] = species on record: Rattus norvegicus; assay: Inhibition of cholera toxin induced intestinal fluid secretion in rat; type: functional; conditions: read-out: ID50 (the source's name)
Oryctolagus cuniculus [3] = species on record: Oryctolagus cuniculus; assay: Inhibition of increase in intestine potential difference caused by diarrhea-inducing secretagogues in rabbits using ''Using chamber''; Active at 1.1 x 10e-5 M; type: functional, organism-based
Rattus norvegicus [4] = species on record: Rattus norvegicus; assay: Inhibition of cholera toxin induced intestinal fluid secretion in rat; I= Inactive; type: functional, organism-based
Oryctolagus cuniculus [5] = species on record: Oryctolagus cuniculus; assay: Inhibition of increase in intestine potential difference caused by diarrhea-inducing secretagogues in rabbits using 'Using chamber'; Active at 1.0 x 10e-6 M; type: functional, organism-based
Oryctolagus cuniculus [6] = species on record: Oryctolagus cuniculus; assay: Inhibition of increase in intestine potential difference caused by diarrhea-inducing secretagogues in rabbits using 'Using chamber'; Active 1.0x 10e-6 M; type: functional, organism-based

| SMILES | inhibition (Oryctolagus cuniculus [1]) | ED50 (Rattus norvegicus [2]) [mg/kg] | ID50 (Rattus norvegicus [4]) | further results |
| --- | --- | --- | --- | --- |
| Cc1cc(C)c(/C=N/N=C(N)N)c(C)c1 | inactive | 16.6 | – | – |
| C/C(=N\N=C(N)N)c1c(C)cccc1C | inactive | 13.3 | inactive | inhibition (Oryctolagus cuniculus [3]): Active at 1.1 x 10e-5 M |
| COc1ccc2c(c1)CCC/C2=N\N=C(N)N | – | 20.5 | – | – |
| Cc1ccc(N)cc1/C=N/N=C(N)N | – | – | inactive | – |
| N=C(N)N/N=C/c1cccc2ccccc12 | inactive | 34.6 | – | – |
| COc1cc(C)c(/C=N/N=C(N)N)c(C)c1 | inactive | 27 | – | – |
| Cc1c(N)cccc1/C=N/N=C(N)N | inactive | – | inactive | – |
| Cc1ccccc1/C=N/N=C(N)N | inactive | – | inactive | – |
| Cc1cc(O)cc(C)c1/C=N/N=C(N)N | inactive | 3.4 | – | – |
| Cc1cc(/C=N/N=C(N)N)cc(C)c1O | inactive | – | inactive | – |
| Cc1c(N)cc(N)c(C)c1/C=N/N=C(N)N | – | – | inactive | – |
| N=C(N)N/N=C1\CCc2ccccc21 | – | – | inactive | – |
| N=C(N)N/N=C1\CCCc2ccccc21 | inactive | 30.6 | – | – |
| CC1CCc2ccccc2/C1=N/N=C(N)N (stereo unspecified) | – | – | inactive | – |
| Cc1cccc(C)c1/C=N/NC1=NCCN1 | – | 7.9 | – | – |
| Cc1cccc(C)c1/C=N/N=C(N)N | – | 1.6 | – | inhibition (Oryctolagus cuniculus [5]): Active at 1.0 x 10e-6 M |
| N=C(N)N/N=C/c1c(Cl)cccc1Cl [GUANABENZ] | – | 1.3 | – | inhibition (Oryctolagus cuniculus [6]): Active |
| N=C(N)N/N=C/c1ccnc2ccccc12 | inactive | – | inactive | – |
| N=C(N)N/N=C/c1ccc2ccccc2c1 | inactive | – | inactive | – |
| COc1cccc2c1CCC/C2=N\N=C(N)N | – | – | inactive | – |
| COc1ccc2c(c1)/C(=N/N=C(N)N)CCC2 | – | – | inactive | – |
